Test results from ChEMBL document CHEMBL4507301 (2021).

Columns and labels:
[1] = system: Mast/stem cell growth factor receptor Kit (Homo sapiens), P10721 [D816H]; conditions: Compound concentration 1000.0 nM
[2] = molecular target: Phosphorylase b kinase regulatory subunit alpha, liver isoform (Homo sapiens) (UniProt P46019); conditions: Compound concentration 1000.0 nM
[3] = molecular target: Serine/threonine-protein kinase PknB (Mycobacterium tuberculosis) (UniProt P9WI81); conditions: Compound concentration 1000.0 nM
[4] = molecular target: Misshapen-like kinase 1 (Homo sapiens) (UniProt Q8N4C8); conditions: Compound concentration 1000.0 nM
Chain of Misshapen-like kinase 1 (Homo sapiens) (Q8N4C8 whole entry, looked up): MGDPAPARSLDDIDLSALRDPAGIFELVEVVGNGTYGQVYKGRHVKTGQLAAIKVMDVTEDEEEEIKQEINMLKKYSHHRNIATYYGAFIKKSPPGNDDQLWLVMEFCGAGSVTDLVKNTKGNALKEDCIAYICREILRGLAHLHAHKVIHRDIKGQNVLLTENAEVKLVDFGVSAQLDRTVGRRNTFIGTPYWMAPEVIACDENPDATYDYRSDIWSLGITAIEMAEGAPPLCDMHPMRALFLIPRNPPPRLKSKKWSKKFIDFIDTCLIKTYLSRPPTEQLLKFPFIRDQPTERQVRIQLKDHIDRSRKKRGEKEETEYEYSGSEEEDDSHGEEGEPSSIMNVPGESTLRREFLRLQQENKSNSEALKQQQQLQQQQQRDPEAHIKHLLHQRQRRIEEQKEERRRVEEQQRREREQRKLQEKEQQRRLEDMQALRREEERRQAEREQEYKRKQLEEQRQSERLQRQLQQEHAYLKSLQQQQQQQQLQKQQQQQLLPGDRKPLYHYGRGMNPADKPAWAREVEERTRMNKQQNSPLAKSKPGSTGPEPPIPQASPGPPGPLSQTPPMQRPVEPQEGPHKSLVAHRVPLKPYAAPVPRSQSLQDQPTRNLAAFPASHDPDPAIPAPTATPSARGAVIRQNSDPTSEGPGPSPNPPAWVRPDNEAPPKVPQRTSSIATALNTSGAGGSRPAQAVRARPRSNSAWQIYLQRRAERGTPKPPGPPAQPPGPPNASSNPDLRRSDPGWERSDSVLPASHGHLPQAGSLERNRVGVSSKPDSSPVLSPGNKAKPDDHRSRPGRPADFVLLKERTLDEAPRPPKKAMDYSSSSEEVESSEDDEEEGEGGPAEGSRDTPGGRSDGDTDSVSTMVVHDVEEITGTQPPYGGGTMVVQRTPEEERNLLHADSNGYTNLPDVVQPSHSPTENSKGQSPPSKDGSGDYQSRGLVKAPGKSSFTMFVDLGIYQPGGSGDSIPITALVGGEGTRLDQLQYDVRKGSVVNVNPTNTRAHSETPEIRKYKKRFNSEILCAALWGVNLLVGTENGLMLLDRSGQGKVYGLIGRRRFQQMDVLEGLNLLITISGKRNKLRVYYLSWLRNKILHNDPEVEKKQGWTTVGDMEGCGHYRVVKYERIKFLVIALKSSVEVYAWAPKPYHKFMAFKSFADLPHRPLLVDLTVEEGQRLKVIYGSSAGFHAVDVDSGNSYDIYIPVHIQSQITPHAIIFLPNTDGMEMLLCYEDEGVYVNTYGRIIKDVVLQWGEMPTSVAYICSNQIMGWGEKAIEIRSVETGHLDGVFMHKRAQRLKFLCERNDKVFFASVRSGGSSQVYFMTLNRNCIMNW

[5] = molecular target: Phosphatidylinositol 5-phosphate 4-kinase type-2 gamma (Homo sapiens) (UniProt Q8TBX8); conditions: Compound concentration 1000.0 nM
[6] = molecular target: Serine/threonine-protein kinase N1 (Homo sapiens) (UniProt Q16512); conditions: Compound concentration 1000.0 nM
[7] = molecular target: High affinity nerve growth factor receptor (Homo sapiens) (UniProt P04629); conditions: Compound concentration 1000.0 nM
[8] = molecular target: Cyclin-dependent kinase 4 (Homo sapiens) (UniProt P11802); conditions: Compound concentration 1000.0 nM
Chain of Cyclin-dependent kinase 4 (Homo sapiens) (P11802 whole entry): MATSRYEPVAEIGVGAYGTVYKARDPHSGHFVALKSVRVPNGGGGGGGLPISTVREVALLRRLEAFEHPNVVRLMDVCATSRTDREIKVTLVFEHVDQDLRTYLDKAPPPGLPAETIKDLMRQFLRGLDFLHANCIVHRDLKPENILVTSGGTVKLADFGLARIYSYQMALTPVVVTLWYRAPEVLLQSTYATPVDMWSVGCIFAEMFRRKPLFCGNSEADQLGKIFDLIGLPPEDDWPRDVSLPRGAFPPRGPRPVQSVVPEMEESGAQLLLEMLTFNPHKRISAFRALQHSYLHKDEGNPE

[9] = molecular target: Dual specificity protein kinase TTK (Homo sapiens) (UniProt P33981); conditions: Compound concentration 1000.0 nM
Chain of Dual specificity protein kinase TTK (Homo sapiens) (P33981 whole entry): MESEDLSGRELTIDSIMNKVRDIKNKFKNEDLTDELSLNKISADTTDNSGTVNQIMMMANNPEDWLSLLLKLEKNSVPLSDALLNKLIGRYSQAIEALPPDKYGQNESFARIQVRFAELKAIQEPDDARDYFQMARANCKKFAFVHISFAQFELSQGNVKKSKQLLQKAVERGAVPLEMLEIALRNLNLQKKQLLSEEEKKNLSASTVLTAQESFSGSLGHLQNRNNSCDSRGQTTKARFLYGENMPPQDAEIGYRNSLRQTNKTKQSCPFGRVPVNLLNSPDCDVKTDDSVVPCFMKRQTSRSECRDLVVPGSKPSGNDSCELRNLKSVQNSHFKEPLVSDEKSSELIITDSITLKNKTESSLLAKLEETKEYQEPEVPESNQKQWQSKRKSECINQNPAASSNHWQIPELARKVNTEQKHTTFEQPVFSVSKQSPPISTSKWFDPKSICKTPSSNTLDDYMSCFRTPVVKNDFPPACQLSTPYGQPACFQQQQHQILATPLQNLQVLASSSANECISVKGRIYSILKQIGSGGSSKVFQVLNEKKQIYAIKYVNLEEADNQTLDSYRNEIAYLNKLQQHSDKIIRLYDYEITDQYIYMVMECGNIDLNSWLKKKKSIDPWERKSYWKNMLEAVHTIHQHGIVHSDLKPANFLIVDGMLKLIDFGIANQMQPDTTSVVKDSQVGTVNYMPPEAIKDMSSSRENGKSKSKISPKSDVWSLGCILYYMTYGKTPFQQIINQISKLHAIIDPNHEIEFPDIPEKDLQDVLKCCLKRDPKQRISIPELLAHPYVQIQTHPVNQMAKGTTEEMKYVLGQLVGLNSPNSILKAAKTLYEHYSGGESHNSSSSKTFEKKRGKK

[10] = molecular target: Serine/threonine-protein kinase SIK1 (Homo sapiens) (UniProt P57059); conditions: Compound concentration 1000.0 nM
[11] = molecular target: Beta-adrenergic receptor kinase 1 (Homo sapiens) (UniProt P25098); conditions: Compound concentration 1000.0 nM
[12] = molecular target: Protein kinase C epsilon type (Homo sapiens) (UniProt Q02156); conditions: Compound concentration 1000.0 nM
[13] = molecular target: MAP kinase-activated protein kinase 2 (Homo sapiens) (UniProt P49137); conditions: Compound concentration 1000.0 nM
[14] = molecular target: Myosin light chain kinase family member 4 (Homo sapiens) (UniProt Q86YV6); conditions: Compound concentration 1000.0 nM
[15] = molecular target: GABA-A receptor; anion channel (Rattus norvegicus) (UniProt O09028+P15431+P18506+P18508+P19969+P20236+P23574+P23576+P28471+P28473+P30191+P62813+P63079+P63138+Q91ZM7+Q9ES14); conditions: Compound concentration 10.0 uM
[16] = molecular target: Interferon-induced, double-stranded RNA-activated protein kinase (Homo sapiens) (UniProt P19525); conditions: Compound concentration 1000.0 nM
[17] = molecular target: Serine/threonine-protein kinase N2 (Homo sapiens) (UniProt Q16513); conditions: Compound concentration 1000.0 nM
[18] = molecular target: Kappa-type opioid receptor (Homo sapiens) (UniProt P41145); conditions: Compound concentration 10.0 uM
Chain of Kappa-type opioid receptor (Homo sapiens) (P41145 whole entry): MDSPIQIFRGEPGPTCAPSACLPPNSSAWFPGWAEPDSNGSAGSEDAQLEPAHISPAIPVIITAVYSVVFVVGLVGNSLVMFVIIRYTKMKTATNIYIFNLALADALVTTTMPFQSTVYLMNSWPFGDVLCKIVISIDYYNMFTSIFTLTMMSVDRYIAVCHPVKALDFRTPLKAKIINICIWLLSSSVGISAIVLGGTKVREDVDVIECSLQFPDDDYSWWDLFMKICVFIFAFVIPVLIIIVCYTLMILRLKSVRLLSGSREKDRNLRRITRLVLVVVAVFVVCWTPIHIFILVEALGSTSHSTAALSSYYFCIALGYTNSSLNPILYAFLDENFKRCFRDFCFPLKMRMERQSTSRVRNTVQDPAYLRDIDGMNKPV

[19] = molecular target: NT-3 growth factor receptor (Homo sapiens) (UniProt Q16288); conditions: Compound concentration 1000.0 nM
Chain of NT-3 growth factor receptor (Homo sapiens) (Q16288 32-839 limits assumed): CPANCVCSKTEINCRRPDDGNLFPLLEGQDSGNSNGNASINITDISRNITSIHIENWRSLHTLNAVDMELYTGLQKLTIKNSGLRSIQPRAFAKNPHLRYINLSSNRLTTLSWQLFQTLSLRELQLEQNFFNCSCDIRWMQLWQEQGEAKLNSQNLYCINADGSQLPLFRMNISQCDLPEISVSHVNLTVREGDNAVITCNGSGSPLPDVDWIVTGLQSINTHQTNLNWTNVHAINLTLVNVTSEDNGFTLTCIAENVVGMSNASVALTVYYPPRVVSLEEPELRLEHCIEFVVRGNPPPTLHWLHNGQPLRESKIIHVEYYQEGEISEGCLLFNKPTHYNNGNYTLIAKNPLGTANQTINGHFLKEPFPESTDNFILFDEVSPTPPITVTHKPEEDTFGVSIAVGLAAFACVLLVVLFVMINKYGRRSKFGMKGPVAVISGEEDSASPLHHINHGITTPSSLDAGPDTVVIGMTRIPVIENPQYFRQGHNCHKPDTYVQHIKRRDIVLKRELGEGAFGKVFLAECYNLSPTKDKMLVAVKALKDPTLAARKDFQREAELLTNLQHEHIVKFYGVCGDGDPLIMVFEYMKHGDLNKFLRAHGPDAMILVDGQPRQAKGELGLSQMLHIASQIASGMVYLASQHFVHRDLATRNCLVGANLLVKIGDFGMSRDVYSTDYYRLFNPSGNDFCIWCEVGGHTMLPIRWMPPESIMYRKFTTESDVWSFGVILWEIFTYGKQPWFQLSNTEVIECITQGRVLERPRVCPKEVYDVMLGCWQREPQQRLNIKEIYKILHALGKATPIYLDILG

[20] = molecular target: D(2) dopamine receptor (Homo sapiens) (UniProt P14416); conditions: Compound concentration 10.0 uM
[21] = molecular target: Uncharacterized serine/threonine-protein kinase SBK3 (Homo sapiens) (UniProt P0C264); conditions: Compound concentration 1000.0 nM
Chain of Uncharacterized serine/threonine-protein kinase SBK3 (Homo sapiens) (P0C264 whole entry): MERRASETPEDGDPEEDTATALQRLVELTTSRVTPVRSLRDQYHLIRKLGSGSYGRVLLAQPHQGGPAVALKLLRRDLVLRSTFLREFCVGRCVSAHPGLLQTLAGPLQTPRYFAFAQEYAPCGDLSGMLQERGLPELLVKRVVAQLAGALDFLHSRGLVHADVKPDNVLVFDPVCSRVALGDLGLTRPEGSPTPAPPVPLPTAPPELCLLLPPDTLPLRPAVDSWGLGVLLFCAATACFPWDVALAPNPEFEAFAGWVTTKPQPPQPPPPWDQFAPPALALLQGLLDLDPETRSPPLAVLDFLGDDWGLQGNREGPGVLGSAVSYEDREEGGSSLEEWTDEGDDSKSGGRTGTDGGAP

[22] = molecular target: RAC-gamma serine/threonine-protein kinase (Homo sapiens) (UniProt Q9Y243); conditions: Compound concentration 1000.0 nM
[23] = molecular target: Calcium/calmodulin-dependent protein kinase type 1B (Homo sapiens) (UniProt Q6P2M8); conditions: Compound concentration 1000.0 nM
[24] = molecular target: Mast/stem cell growth factor receptor Kit (Homo sapiens) (UniProt P10721); conditions: Compound concentration 1000.0 nM
[25] = molecular target: cGMP-dependent protein kinase 1 (Homo sapiens) (UniProt Q13976); conditions: Compound concentration 1000.0 nM
[26] = molecular target: Cyclin-dependent kinase 4 (Homo sapiens) (UniProt P11802); conditions: Compound concentration 1000.0 nM; remark: listed apart in the source
[27] = molecular target: Macrophage-stimulating protein receptor (Homo sapiens) (UniProt Q04912); conditions: Compound concentration 1000.0 nM
[28] = molecular target: Eukaryotic translation initiation factor 2-alpha kinase 1 (Homo sapiens) (UniProt Q9BQI3); conditions: Compound concentration 1000.0 nM
[29] = molecular target: Serine/threonine-protein kinase MRCK gamma (Homo sapiens) (UniProt Q6DT37); conditions: Compound concentration 1000.0 nM
[30] = molecular target: Serine/threonine-protein kinase LATS2 (Homo sapiens) (UniProt Q9NRM7); conditions: Compound concentration 1000.0 nM
[31] = molecular target: Cyclin-dependent kinase 3 (Homo sapiens) (UniProt Q00526); conditions: Compound concentration 1000.0 nM
[32] = molecular target: Cyclin-dependent kinase 19 (Homo sapiens) (UniProt Q9BWU1); conditions: Compound concentration 1000.0 nM
[33] = molecular target: Bone morphogenetic protein receptor type-1A (Homo sapiens) (UniProt P36894); conditions: Compound concentration 1000.0 nM
[34] = molecular target: LIM domain kinase 2 (Homo sapiens) (UniProt P53671); conditions: Compound concentration 1000.0 nM
[35] = molecular target: Epithelial discoidin domain-containing receptor 1 (Homo sapiens) (UniProt Q08345); conditions: Compound concentration 1000.0 nM
[36] = molecular target: Protein-tyrosine kinase 6 (Homo sapiens) (UniProt Q13882); conditions: Compound concentration 1000.0 nM
[37] = molecular target: Tyrosine-protein kinase Yes (Homo sapiens) (UniProt P07947); conditions: Compound concentration 1000.0 nM
[38] = molecular target: Serine/threonine-protein kinase RIO3 (Homo sapiens) (UniProt O14730); conditions: Compound concentration 1000.0 nM
[39] = molecular target: Serine/threonine-protein kinase Nek7 (Homo sapiens) (UniProt Q8TDX7); conditions: Compound concentration 1000.0 nM
[40] = molecular target: Mitogen-activated protein kinase kinase kinase 15 (Homo sapiens) (UniProt Q6ZN16); conditions: Compound concentration 1000.0 nM
[41] = molecular target: Mitogen-activated protein kinase kinase kinase 6 (Homo sapiens) (UniProt O95382); conditions: Compound concentration 1000.0 nM
[42] = molecular target: Aurora kinase C (Homo sapiens) (UniProt Q9UQB9); conditions: Compound concentration 1000.0 nM
Chain of Aurora kinase C (Homo sapiens) (Q9UQB9 whole entry): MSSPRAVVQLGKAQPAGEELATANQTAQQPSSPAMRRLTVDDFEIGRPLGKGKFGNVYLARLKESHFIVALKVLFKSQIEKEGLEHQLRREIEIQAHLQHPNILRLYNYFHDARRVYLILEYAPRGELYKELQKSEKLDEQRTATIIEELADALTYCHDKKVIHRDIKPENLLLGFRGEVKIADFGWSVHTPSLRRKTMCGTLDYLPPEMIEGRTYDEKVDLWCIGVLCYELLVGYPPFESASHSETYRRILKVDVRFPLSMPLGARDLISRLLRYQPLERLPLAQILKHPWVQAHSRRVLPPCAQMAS

[43] = molecular target: RAC-beta serine/threonine-protein kinase (Homo sapiens) (UniProt P31751); conditions: Compound concentration 1000.0 nM
[44] = molecular target: Serine/threonine-protein kinase Nek2 (Homo sapiens) (UniProt P51955); conditions: Compound concentration 1000.0 nM
Chain of Serine/threonine-protein kinase Nek2 (Homo sapiens) (P51955 whole entry): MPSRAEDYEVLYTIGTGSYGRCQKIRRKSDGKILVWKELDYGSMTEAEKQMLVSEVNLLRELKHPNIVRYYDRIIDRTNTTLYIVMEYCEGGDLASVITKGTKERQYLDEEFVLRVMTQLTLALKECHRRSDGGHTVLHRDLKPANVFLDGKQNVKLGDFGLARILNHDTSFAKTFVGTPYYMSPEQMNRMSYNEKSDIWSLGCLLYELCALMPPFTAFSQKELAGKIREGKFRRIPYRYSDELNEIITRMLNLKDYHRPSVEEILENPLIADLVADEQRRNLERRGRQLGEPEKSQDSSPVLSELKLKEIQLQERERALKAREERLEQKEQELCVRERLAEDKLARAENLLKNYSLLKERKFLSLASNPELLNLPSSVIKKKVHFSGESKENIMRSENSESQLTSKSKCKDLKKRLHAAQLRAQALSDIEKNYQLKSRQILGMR

`C[C@@H](c1cccc(C#N)c1)n1cc(Cl)cc(C(N)=O)c1=N` [(S)-9s] gave a residual activity [1] of 100%, a residual activity [2] of 100% and a residual activity [3] of 100%. It also gave a residual activity [4] of 96%, a residual activity [5] of 85% and a residual activity [6] of 83%. The residual activity [7] was 100%, the residual activity [8] was 91% and the residual activity [9] was 100%. For the same molecule, the residual activity [10] was 96%, the residual activity [11] was 78% and the residual activity [12] was 89%. For the same molecule, the residual activity [13] was 97%, the residual activity [14] was 100% and the inhibition [15] was 5.78%. It also gave a residual activity [16] of 100%, a residual activity [17] of 100% and an inhibition [18] of 1.2%. The residual activity [19] was 0%, the inhibition [20] was -3.06% and the residual activity [21] was 95%. The residual activity [22] was 100%, the residual activity [23] was 88% and the residual activity [24] was 78%. The residual activity [25] was 100%, the residual activity [26] was 96% and the residual activity [27] was 100%. It also gave a residual activity [28] of 95%, a residual activity [29] of 100% and a residual activity [30] of 80%. The residual activity [31] was 100%, the residual activity [32] was 100% and the residual activity [33] was 100%. It also gave a residual activity [34] of 100%, a residual activity [35] of 88% and a residual activity [36] of 85%. For the same molecule, the residual activity [37] was 93%, the residual activity [38] was 87% and the residual activity [39] was 89%. For the same molecule, the residual activity [40] was 98%, the residual activity [41] was 79% and the residual activity [42] was 96%. For the same molecule, the residual activity [43] was 93% and the residual activity [44] was 100%.

Work on `C[C@H](c1cccc(C#N)c1)n1cc(Cl)cc(C(N)=O)c1=N` [(R)-9s] yielded a residual activity [1] of 79%, a residual activity [2] of 100% and a residual activity [3] of 89%. For the same molecule, the residual activity [4] was 88%, the residual activity [5] was 100% and the residual activity [6] was 65%. The residual activity [7] was 100%, the residual activity [8] was 96% and the residual activity [9] was 66%. The residual activity [10] was 100%, the residual activity [11] was 81% and the residual activity [12] was 87%. The residual activity [13] was 100%, the residual activity [14] was 100% and the inhibition [15] was 0.16%. For the same molecule, the residual activity [16] was 100%, the residual activity [17] was 100% and the inhibition [18] was -0.22%. For the same molecule, the residual activity [19] was 96%, the inhibition [20] was 1.55% and the residual activity [21] was 95%. The residual activity [22] was 100%, the residual activity [23] was 89% and the residual activity [24] was 98%. For the same molecule, the residual activity [25] was 100%, the residual activity [26] was 97% and the residual activity [27] was 100%. It also gave a residual activity [28] of 100%, a residual activity [29] of 77% and a residual activity [30] of 84%. It also gave a residual activity [31] of 100%, a residual activity [32] of 89% and a residual activity [33] of 100%. For the same molecule, the residual activity [34] was 100%, the residual activity [35] was 98% and the residual activity [36] was 95%. The residual activity [37] was 88%, the residual activity [38] was 100% and the residual activity [39] was 97%. The residual activity [40] was 81%, the residual activity [41] was 91% and the residual activity [42] was 91%. The residual activity [43] was 100% and the residual activity [44] was 100%.
